Values joined by “and” are separate entries in the source; they are usually repeats but may differ in a detail not shown here. Identical values can stand only once.
Assay: case series: professional polishing of the six lower front teeth of heavy calculus formers with MCC paste
Assay type: in vivo, human
Experimental: This is an example of a series of cases of patients who have been confirmed as heavy calculus formers that were treated with the 1:1 metal complex. Generally, the medication utilized was composed of the active ingredient, disodium monocopper(II) citrate (MCC), C.A.S. Registry Number: 65330-59-8, dispersed in an aqueous vehicle comprising aluminum hydroxide, dicalcium phosphate, sorbitol, carboxymethylcellulose and water to form a paste. All of the cases incorporated herewith, as an example, were confirmed diagnostically by a dentist employing the usual examining techniques, i.e., physical examination, etc. The ages of the patients who participated in this example ranged from 35 to 73 years.
All of the patients in this example, prior to their treatment with the 1:1 metal complexes, had self-treated. In self-treating, all patients brushed with a standard dentifrice, flossed, and applied a mixture of baking soda, salt and water to their teeth at least once a day to contain or control calculus build up. Subsequent to and in conjunction with self-treatment, each patient received professionally a standard course of therapy which involved routinely scaling the teeth with a hand pick and an ultrasonic scaler and polishing the teeth mechanically with a mixture of pumice and stannous fluoride via a rubber prophylaxis cup. The patients in this example were treated every 3, 4 or 6 months and the length of standard treatment by the dentist ranged from about 4 years to about 12 years.
At the time of the first examination by the dentist, each patient's mouth was in extremely poor condition, and gross calculus build up was observed; however, no caries or restorations were present.
Subsequent to the standard professional therapy, treatment of all sides of the six lower front teeth with MCC were initiated and performed by the dentist every 3, 4 or 6 months for a total of 10 months. Treatment consisted of first scaling the six lower front teeth with a hand pick and an ultrasonic scaler to debride the teeth and then polishing the teeth mechanically with the above described MCC mixture via a rubber prophylaxis cup. […] The overall appearance of the six lower front teeth was excellent. […] For a more detailed presentation of this example, see the following table.

O=C([O-])CC(O)(CC(=O)[O-])C(=O)O.[Cu+2] [MCC, disodium-monocopper(II) citrate]
Amt. of Calculus after Application of MCC (Calculus Accumulation code 1 = worst condition, 10 = best condition (total absence of accumulation), one value per patient, six lower front teeth, MCC paste every 3, 4 or 6 months for 10 months): +8 (2×) and +9 (2×) and +7
overall appearance of the six lower front teeth (after therapy with the copper complex): excellent
calculus accumulation on the six lower front teeth (all patients, compared to the remaining teeth treated with the standard therapy): dramatic reduction in calculus accumulation
side effects or tissue irritation (five patients, treatment over 10 months): no side effects or tissue irritation
taste complaint (two of five patients): metallic taste from the MCC mixture which subsided immediately upon rinsing

From patent EP0267994B2, “The use of a metal complex for the manufacture of a composition for treating dental structures” (NATIONAL RESEARCH LABORATORIES, priority 1986, dated 1988)
